Values of other authors in patent publication US12357614B2, “L-ergothioneine-containing composition” (NAGASE & CO., LTD., priority 2020, dated 2025).

Assays:
Escherichia coli = conditions: EGT at 5 mM and 50 mM
[1] = test system: mouse bone marrow-derived macrophages; conditions: 10 mM EGT, toll-like receptor ligand stimulation
OT-II CD4^+ T cells = conditions: 30 mM EGT, co-culture with F4/80 macrophages

C[N+](C)(C)[C@@H](Cc1c[nH]c(=S)[nH]1)C(=O)[O-] [EGT, N,N,N-trimethyl-L-2-thiohistidine]
growth of Escherichia coli (Escherichia coli): suppresses the growth of Escherichia coli | production of cytokines (IL-6, IL-12p40, IL-1β, IL-10) [1]: promoted | Th17 polarization of OT-II CD4^+ T cells (OT-II CD4^+ T cells): promoted
